Target: Fibroblast growth factor receptor 1 (Homo sapiens, UniProt P11362)
Sequence (P11362 whole entry): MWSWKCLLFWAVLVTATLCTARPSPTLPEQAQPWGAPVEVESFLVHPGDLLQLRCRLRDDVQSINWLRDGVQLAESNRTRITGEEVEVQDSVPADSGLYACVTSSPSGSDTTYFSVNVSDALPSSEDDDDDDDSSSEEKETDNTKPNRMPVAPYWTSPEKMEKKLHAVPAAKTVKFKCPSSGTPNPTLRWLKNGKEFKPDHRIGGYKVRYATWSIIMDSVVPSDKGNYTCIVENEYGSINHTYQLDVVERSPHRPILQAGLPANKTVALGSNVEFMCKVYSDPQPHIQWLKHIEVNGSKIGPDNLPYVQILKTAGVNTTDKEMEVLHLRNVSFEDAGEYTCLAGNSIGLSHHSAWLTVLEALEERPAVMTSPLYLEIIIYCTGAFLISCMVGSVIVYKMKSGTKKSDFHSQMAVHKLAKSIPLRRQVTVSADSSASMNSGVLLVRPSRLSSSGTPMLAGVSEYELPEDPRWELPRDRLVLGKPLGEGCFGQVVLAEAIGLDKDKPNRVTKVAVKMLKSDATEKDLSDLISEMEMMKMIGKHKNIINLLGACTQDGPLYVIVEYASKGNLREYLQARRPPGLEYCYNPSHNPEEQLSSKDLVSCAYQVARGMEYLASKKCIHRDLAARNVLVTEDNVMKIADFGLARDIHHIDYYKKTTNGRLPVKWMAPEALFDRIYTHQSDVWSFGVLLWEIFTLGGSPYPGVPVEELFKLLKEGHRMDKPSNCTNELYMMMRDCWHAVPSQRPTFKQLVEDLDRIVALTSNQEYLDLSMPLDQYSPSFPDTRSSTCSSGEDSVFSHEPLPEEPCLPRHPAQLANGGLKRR

Ki: 0.0452 µM
Compound: COc1cc(OC)cc(-c2cc3cnc(N)nc3nc2NC(=O)NC(C)(C)C)c1 [6-arylpyrido[2,3-d]pyrimidine deriv. 25]
